Test results from patent US10125183B2, “Decoy peptides inhibiting binding of AMIGO2 and 3-phosphoinositide-dependent kinase 1” (Curacle Co., Ltd., priority 2015, dated 2018).

How the values were obtained:
C57BL/6 mice = test: Matrigel plug angiogenesis assay; format: in vivo, mouse; settings: 25 μM peptide with VEGF 200 ng, subcutaneous, five days
Protocol: Angiogenesis was evaluated as previously described (Choi et al., 2009). PBS; Matrigel™ (500 μL; BD Biosciences) mixed with PTD-A2 (25 μM), VEGF (200 ng) and heparin (10 U); and Con-pep (25 μM), VEGF (200 ng) and heparin (10 u) were each subcutaneously injected to Five- to six-week-old C57BL/6 mice. Following injection, the Matrigel™ rapidly formed a single, solid gel plug. After five days, the skin of the mouse was pulled back to expose the Matrigel™ plug, which remained intact. To quantify blood vessel formation, hemoglobin was measured using the Drabkin method and the Drabkin reagent kit 525 (Sigma-Aldrich), and immunohistochemistry was performed using anti-CD31 antibody (BD Biosciences) to identify infiltrating ECs.

PDK1 = PDK1 localization in HUVECs after VEGF treatment (immunofluorescence); format: cell-based, human; settings: PTD-A2-treated HUVECs
Protocol: HUVECs were fixed in 3.7% formaldehyde for 10 min and permeabilized with 0.1% Triton X-100 on the ice. Cells were labeled with anti-FAK antibody (Santa Cruz Biotechnology), anti-PDK1 antibody (Cell Signaling Technology), anti-Akt antibody (Cell Signaling Technology), and anti-AMIGO2 antibody (Abcam) for 2 h at room temperature or overnight at 4° C. Afterwards, the cells were incubated with Alexa 488 and Alexa 546 secondary antibodies (Invitrogen) for 60 min at room temperature, and were then examined under a confocal microscope (LSM 700 META; Carl Zeiss).
(§1) The PTD-A2 of FITC-linker-YGRKKRRQRRR-GKRVVFLEPLKDTA (SEQ ID NO: 37) (decoy peptide) and the control peptide (FITC-linker-YGRKKRRQRRR-GRVKTDFLAVPEKL (SEQ ID NO: 38)) (Con-pep) were obtained from Peptron. The experiment was performed using 5 μM concentration in vitro, 4 mg/kg was used for an animal experiment. Peptide treated HUVECs were incubated with serum-free M199 medium at 37° C.

B16F10 melanoma tumors = test: B16F10 melanoma tumor model; format: in vivo, mouse; settings: 4 mg/kg every other day
Protocol: B16F10 melanoma cells (2.5×10^5 cells in 100 μl) were subcutaneously injected into the dorsal flank of 6-7 week-old mice and then PTD-Con or PTD-A2 peptide (4 mg/kg every other day) was administered by intratumoral injection after the tumor volume exceeded 100 mm^3. The size was evaluated every day, tumor samples were frozen sectioned, and stained with anti-CD31 antibody to detect the tumor vascular changes, and then examined the apoptosis bio TUNEL staining. For the TUNEL assay, an in situ cell death detection kit (Roche) was used, and sections were analyzed using a confocal microscope (LSM 700 META; Carl Zeiss).

HUVECs [1] = test: HUVEC cell viability with or without VEGF; format: cell-based, human; settings: serum-free starvation with or without VEGF
Protocol: Endothelial progenitor cells (EPC) were isolated from human umbilical cord blood as previously described (Maeng et al., 2009). Briefly, human umbilical cord blood samples (approximately 50 mL each) were collected from fresh placentas with attached umbilical cords by gravity flow. Human umbilical vein endothelial cells (HUVECs) were isolated from human umbilical cord veins using collagenase as described previously (Marin et al., 2001), and cells from passages three to six were used. HUVECs were cultured on 2% gelatin-coated dishes at 37° C. in a 5% CO2-humidified atmosphere using M199 medium (HyClone) containing 20% fetal bovine serum (FBS), 100 U/mL penicillin, 100 μg/mL streptomycin, 3 ng/mL bFGF (Upstate Biotechnology), and 5 U/mL heparin.
as §1

[2] = biological target: T1, association between AMIGO2 and PDK1 (Homo sapiens, UniProt O15530); test: Immunoprecipitation of AMIGO2 and blotting for PDK1 in peptide-treated HUVECs; format: cell-based
T1 construct: endogenous in cells; host or cells: endothelial cells (HUVECs)
T1 sequence (O15530 1-556): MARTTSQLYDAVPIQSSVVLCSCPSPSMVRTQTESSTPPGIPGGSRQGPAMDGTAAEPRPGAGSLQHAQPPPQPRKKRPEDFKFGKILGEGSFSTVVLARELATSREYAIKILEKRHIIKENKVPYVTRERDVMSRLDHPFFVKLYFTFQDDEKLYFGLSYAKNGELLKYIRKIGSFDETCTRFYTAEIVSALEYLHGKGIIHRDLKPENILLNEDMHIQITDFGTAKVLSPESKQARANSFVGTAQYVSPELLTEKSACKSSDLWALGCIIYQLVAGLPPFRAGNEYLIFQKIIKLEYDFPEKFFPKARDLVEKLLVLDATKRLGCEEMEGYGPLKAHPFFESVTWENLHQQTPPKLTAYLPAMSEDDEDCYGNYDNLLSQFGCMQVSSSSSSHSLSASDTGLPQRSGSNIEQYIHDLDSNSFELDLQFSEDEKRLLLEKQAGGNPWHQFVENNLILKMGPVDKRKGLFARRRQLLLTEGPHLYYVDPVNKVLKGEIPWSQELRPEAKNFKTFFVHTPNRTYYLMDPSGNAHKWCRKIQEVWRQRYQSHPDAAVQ
Protocol: For co-immunoprecipitation, HEK293T cells were lysed in 1 mL lysis buffer (20 mmol/L Tris/HCl pH 8.0, 2 mmol/L EDTA, 137 mmol/L NaCl, 1 mmol/L NaVO4, 1 mmol/L PMSF, 10% glycerol, and 1% Triton X-100), and were centrifuged at 14,000×g for 15 min at 4° C., and then the supernatants were immunoprecipitated with antibodies against FLAG (Sigma-Aldrich) and GFP (Santa Cruz Biotechnology) at 4° C. overnight. The immunoprecipitated proteins were obtained by using protein A-agarose beads (Upstate Biotechnology), and detected by SDS-PAGE.
as §1

Akt and PDK1 = test: VEGF-induced Akt signaling in HUVECs; format: cell-based, human; settings: PTD-A2-treated HUVECs
Protocol: as §1

PDK1 PH domain = biological target: T2, PDK1 PH domain (Homo sapiens, UniProt O15530); test: Decoy peptide binding assay (FITC-PTD-A2 with His-tagged PH domain proteins); settings: FITC-PTD-A2, PH domain proteins 0-60 μg, fluorescence
T2 construct: the purified His-tagged PH domain proteins were incubated with Ni^2+-NTA resins; made in house; host or cells: Escherichia coli BL21
T2 sequence (O15530 459-550 limits assumed): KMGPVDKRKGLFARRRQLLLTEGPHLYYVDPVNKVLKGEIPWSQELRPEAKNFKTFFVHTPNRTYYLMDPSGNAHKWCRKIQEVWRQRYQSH
Protocol: (§2) For the peptide binding assay, the purified His-tagged PH domain proteins were incubated with Ni^2+-NTA resins for 1 h, incubated in vitro with the FITC-PTD-A2 or Con-pep for 1 h, washed five times, eluted with elution buffer. The FITC level of eluted material was then measured using FLUOstar Omega (BGMLABTECH). For the peptide competition assay, the purified His tagged PH domain proteins were incubated with Ni^2+-NTA resins for 1 h, incubated in vitro with the Cytoplasm Domain protein of AMIGO2 proteins with FITC-PTD-A2 or Con-pep for 1 h, washed five times, eluted with elution buffer, and the fluorescence was measured. The FITC level of eluted material was then measured using FLUOstar Omega.

[3] = biological target: T3, interaction of the CD of AMIGO2 and PH domain of PDK1 (Homo sapiens, UniProt O15530); test: Peptide competition assay (GST-AMIGO2 CD versus peptide on His-tagged PDK1 PH); format: binding; settings: His-tagged PDK1 PH with GST-AMIGO2 CD and peptide, dose dependent
T3 construct: the purified His tagged PH domain proteins were incubated with Ni^2+-NTA resins; made in house; host or cells: Escherichia coli BL21
T3 sequence (O15530 459-550 limits assumed): T2 sequence (O15530 459-550 limits assumed)
Protocol: as §2

HUVECs [4] = test: Matrigel-induced tube formation assay; format: cell-based, human; settings: PTD-A2 treated ECs
Protocol: The tube formation was assayed as previously described (Choi et al., 2009). Briefly, 250 μL of Matrigel™ (BD Biosciences) was added to a 16-mm diameter tissue culture well on the ice. HUVEC cells then ware placed on that and tube formation was confirmed. The images of the tubes were quantified using ImageJ software (National Institutes of Health).

C57BL/6J mice = test: Mouse model of oxygen-induced retinopathy (OIR); format: in vivo; settings: injected every day for five days from P12
Protocol: OIR was induced in C57BL/6J mice as previously described (Connor et al., 2009). Briefly, litters of postnatal day seven (P7) C57BL/6J pups were placed in a 75% oxygen atmosphere for five days and then returned to room air at age P12. After returning to room air, the pups were injected with PBS, Con-pep and PTD-A2 every day for five days. Following the injections, crumps of non-vascular regions, vascular regions and blood vessels were detected with CD31 staining.

Substance: FITC-linker-YGRKKRRQRRR-GKRVVFLEPLKDTA (SEQ ID NO: 37) [PTD-A2]
- hemoglobin contents of Matrigel plugs (C57BL/6 mice): lower
- neovascularization in Matrigel plugs (C57BL/6 mice): dramatic inhibition
- PDK1 localization to the plasma membrane following VEGF treatment (PDK1): unable to move to the plasma membrane
- apoptotic regions of tumors (TUNEL assay) (B16F10 melanoma tumors; compared to PBS or Con-pep groups): increased
- tumor formation (B16F10 melanoma tumors; intratumoral injection): decreased
- tumor angiogenesis (B16F10 melanoma tumors; intratumoral, CD31 staining): decreased
- cell viability of PTD-A2-treated HUVECs (HUVECs [1]): dose and time-dependent inhibitory effect
- association between AMIGO2 and PDK1 in endothelial cells [2]: inhibited
- activity of both Akt and PDK1 (Akt and PDK1): reduced
- binding to the PDK1 PH domain (PDK1 PH domain): bound
- interaction of the CD of AMIGO2 and PH domain of PDK1 [3]: inhibited
- Matrigel-induced tube formation (HUVECs [4]): inhibited
- avascular areas of retinas (C57BL/6J mice): increased
- retinal hemorrhage (C57BL/6J mice): significantly reduced
- retinal vascular areas (C57BL/6J mice): significantly reduced
- tuft formation (C57BL/6J mice): significantly reduced
